Values of other authors as cited in patent publication US20200306268A1, “VITAMIN COMPOSITION” (Tempus Bio Technologies LLC, priority 2019, published 2020).

Compound: C=C1CC[C@H](O)C/C1=C/C=C1\CCC[C@]2(C)[C@@H]([C@H](C)CCCC(C)C)CC[C@@H]12 [vitamin D3, (3β,5Z,7E)-9,10-secocholesta-5,7,10(19)-trien-3-ol]
- solubility in MCT oil (MCT oil): very soluble
- solubility in water (water): not soluble
